# Test results: ChEMBL document CHEMBL1909046, “DrugMatrix in vitro pharmacology data”
# Key:
# Cytochrome P450 2D6 = Cytochrome P450 2D6 (Homo sapiens, UniProt P10635); settings: bti-tn-5b1-4; also: in other assays of this panel Not Active means under 50% inhibition at 10 µM
# Carbonic anhydrase 2 = Carbonic anhydrase 2 (Homo sapiens, UniProt P00918); test: DRUGMATRIX: Carbonic Anhydrase II enzyme inhibition (substrate: 4-Nitrophenyl acetate (4-NPA)); format: tissue-based, Erythrocyte; settings: erythrocyte; Not Active = under 50% inhibition at 10 µM
# [1] = target: C-C chemokine receptor type 2 (Homo sapiens, UniProt P41597); format: cell membranes, CHO-K1, Membrane; also: in other assays of this panel Not Active means under 50% inhibition at 10 µM
# Sequence of C-C chemokine receptor type 2 (P41597 whole entry): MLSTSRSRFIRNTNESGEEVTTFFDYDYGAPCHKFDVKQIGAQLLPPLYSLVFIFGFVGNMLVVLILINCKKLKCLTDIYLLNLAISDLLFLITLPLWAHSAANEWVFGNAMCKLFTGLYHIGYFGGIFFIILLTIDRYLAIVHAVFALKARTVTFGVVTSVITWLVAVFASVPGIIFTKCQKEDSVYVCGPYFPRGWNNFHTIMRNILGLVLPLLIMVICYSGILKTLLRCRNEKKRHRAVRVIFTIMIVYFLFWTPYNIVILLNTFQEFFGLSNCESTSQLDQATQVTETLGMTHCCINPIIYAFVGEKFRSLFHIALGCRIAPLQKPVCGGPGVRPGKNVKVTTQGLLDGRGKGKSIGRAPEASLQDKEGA
# Cytochrome P450 2C19 = Cytochrome P450 2C19 (Homo sapiens, UniProt P33261); settings: bti-tn-5b1-4; also: in other assays of this panel Not Active means under 50% inhibition at 10 µM
# Sequence of Cytochrome P450 2C19 (P33261 whole entry): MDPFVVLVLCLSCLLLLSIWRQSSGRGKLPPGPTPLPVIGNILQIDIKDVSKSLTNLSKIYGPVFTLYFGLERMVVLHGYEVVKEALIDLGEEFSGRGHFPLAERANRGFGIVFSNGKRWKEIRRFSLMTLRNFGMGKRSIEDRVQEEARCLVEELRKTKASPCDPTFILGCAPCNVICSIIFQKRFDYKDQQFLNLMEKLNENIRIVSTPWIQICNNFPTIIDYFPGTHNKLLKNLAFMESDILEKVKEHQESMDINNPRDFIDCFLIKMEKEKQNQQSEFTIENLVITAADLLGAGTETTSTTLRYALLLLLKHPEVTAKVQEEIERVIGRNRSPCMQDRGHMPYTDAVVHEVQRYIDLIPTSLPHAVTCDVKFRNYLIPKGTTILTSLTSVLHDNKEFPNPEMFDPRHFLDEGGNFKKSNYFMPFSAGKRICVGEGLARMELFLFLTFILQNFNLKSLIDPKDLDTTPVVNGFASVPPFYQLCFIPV
# [2] = target: T1, Muscarinic acetylcholine receptor M5 (Homo sapiens, UniProt P08912); format: cell membranes, CHO-K1, Membrane; also: in other assays of this panel Not Active means under 50% inhibition at 10 µM
# T1 sequence (P08912 whole entry): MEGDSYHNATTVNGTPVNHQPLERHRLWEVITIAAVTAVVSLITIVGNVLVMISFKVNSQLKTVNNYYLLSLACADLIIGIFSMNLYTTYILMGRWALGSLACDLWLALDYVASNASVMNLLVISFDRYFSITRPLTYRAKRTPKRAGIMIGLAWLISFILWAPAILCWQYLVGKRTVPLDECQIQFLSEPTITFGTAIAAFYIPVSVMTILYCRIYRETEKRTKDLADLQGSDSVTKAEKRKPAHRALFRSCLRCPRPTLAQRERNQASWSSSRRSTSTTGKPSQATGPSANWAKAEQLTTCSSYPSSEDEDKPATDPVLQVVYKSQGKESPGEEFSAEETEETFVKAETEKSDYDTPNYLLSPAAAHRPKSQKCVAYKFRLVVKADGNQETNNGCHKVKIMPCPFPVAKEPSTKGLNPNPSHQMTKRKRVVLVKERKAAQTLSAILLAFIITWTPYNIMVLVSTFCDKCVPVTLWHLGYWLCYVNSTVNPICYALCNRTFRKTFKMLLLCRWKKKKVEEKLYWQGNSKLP
# [3] = target: T2, C-X-C chemokine receptor type 1 (Homo sapiens, UniProt P25024); also: in other assays of this panel Not Active means under 50% inhibition at 10 µM
# T2 sequence (P25024 whole entry): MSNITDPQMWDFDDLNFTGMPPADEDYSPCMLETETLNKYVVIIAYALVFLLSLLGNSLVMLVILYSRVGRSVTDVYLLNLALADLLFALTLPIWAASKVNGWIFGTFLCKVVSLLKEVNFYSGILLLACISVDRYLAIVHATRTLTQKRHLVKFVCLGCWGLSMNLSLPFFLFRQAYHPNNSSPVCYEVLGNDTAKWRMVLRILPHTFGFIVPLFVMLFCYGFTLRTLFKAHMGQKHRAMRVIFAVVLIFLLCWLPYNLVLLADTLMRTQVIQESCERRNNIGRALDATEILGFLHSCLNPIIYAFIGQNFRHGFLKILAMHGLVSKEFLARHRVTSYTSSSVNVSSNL
# Neutrophil elastase = target: T3, Neutrophil elastase (Homo sapiens, UniProt P08246); format: tissue-based
# T3 sequence (P08246 whole entry): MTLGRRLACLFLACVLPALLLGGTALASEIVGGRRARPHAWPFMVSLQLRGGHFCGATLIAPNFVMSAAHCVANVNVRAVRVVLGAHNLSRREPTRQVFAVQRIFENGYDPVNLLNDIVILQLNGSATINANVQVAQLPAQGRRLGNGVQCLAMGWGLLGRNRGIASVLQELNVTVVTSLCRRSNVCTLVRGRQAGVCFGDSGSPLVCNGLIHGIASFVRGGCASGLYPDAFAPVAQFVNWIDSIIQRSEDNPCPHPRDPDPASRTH
# Sequence of Cytochrome P450 2D6 (P10635 whole entry): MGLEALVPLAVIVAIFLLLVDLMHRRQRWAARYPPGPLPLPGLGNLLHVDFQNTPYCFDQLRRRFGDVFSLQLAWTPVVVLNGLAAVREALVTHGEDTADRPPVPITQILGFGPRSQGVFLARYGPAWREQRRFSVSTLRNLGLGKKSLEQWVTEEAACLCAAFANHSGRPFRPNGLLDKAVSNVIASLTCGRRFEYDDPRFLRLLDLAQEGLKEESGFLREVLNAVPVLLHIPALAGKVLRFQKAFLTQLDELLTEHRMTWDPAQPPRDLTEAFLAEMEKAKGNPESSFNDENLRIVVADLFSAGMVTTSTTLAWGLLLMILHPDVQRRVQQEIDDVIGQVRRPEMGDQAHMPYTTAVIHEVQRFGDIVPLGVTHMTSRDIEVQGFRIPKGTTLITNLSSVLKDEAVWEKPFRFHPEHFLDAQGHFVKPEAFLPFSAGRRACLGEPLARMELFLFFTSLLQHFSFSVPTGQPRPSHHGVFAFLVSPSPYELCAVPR
SMILES,IC50 (Cytochrome P450 2D6),Ki (Cytochrome P450 2D6),IC50 (Carbonic anhydrase 2),IC50 ([1]; cho-k1),IC50 (Cytochrome P450 2C19),Ki (Cytochrome P450 2C19),IC50 ([2]; cho-k1),IC50 [3],IC50 (Neutrophil elastase),IC50 ([1]; read-out: IC50) [nM],Ki ([1]; read-out: Ki) [nM],IC50 ([2]; read-out: IC50) [nM],Ki ([2]; read-out: Ki) [nM]
CC(C)(C)NC(=O)[C@@H]1C[C@@H]2CCCC[C@@H]2CN1C[C@@H](O)[C@H](Cc1ccccc1)NC(=O)[C@H](CC(N)=O)NC(=O)c1ccc2ccccc2n1,Not Active,Not Active,Not Active,Not Active,Not Active,Not Active,Not Active,Not Active,Not Active,,,,
CC(=O)[C@@]1(O)CC[C@H]2[C@@H]3C[C@H](C)C4=CC(=O)CC[C@]4(C)[C@H]3CC[C@@]21C,Not Active,Not Active,Not Active,Not Active,,,Not Active,Not Active,Not Active,,,,
N[C@@H](Cc1ccc(N(CCCl)CCCl)cc1)C(=O)O,Not Active,Not Active,Not Active,Not Active,Not Active,Not Active,Not Active,Not Active,Not Active,,,,
CCCCc1oc2ccccc2c1C(=O)c1cc(I)c(OCCN(CC)CC)c(I)c1 [AMIODARONE],,,Not Active,,,,,Not Active,Not Active,11100,4280,1500,1080
OCCN(CCO)c1nc(N2CCCCC2)c2nc(N(CCO)CCO)nc(N3CCCCC3)c2n1 [DIPYRIDAMOLE],Not Active,Not Active,Not Active,Not Active,Not Active,Not Active,Not Active,Not Active,Not Active,,,,
Cc1oncc1C(=O)Nc1ccc(C(F)(F)F)cc1 [LEFLUNOMIDE],Not Active,Not Active,Not Active,Not Active,Not Active,Not Active,Not Active,Not Active,Not Active,,,,
c1ccc([C@H]2CN3CCSC3=N2)cc1 [LEVAMISOLE],Not Active,Not Active,Not Active,Not Active,Not Active,Not Active,Not Active,Not Active,Not Active,,,,
N[C@@H](Cc1ccc(O)c(O)c1)C(=O)O [LEVODOPA],Not Active,Not Active,Not Active,Not Active,Not Active,Not Active,Not Active,Not Active,Not Active,,,,
N[C@@H](Cc1cc(I)c(Oc2ccc(O)c(I)c2)c(I)c1)C(=O)O [LIOTHYRONINE],Not Active,Not Active,Not Active,Not Active,Not Active,Not Active,Not Active,Not Active,Not Active,,,,
O=NN(CCCl)C(=O)NC1CCCCC1 [LOMUSTINE],Not Active,Not Active,Not Active,Not Active,Not Active,Not Active,Not Active,Not Active,Not Active,,,,
CCOC(=O)N1CCC(=C2c3ccc(Cl)cc3CCc3cccnc32)CC1 [LORATADINE],,,Not Active,Not Active,,,Not Active,Not Active,Not Active,,,,
Cn1ccnc1S [METHIMAZOLE],Not Active,Not Active,Not Active,Not Active,Not Active,Not Active,Not Active,Not Active,Not Active,,,,
